Measurements: US20030170606A1, “High-throughput screening assays for modulators of mitochondrial membrane potential” (priority 1999, published 2003)

Tested on: UCP1
Assay: DiSC3 fluorescence assay in permeabilized UCP1-expressing yeast cells (YUCP)
Format: cell-based
Method: To make the cells permeable to externally added compounds, the yeast cells were treated with zymolyase. The spheroplasts were cultured in full media for 0.5 hours and pelleted. The pellets were resuspended in a lysis buffer and stored at about −80° C. The permeabilized cells can be kept in this way for at least one half year without loss of activity.
To assess the effects of known modulators of uncoupling activity and of uncoupling protein activity, the following fluorescence intensity measurements were carried out: Permeabilized cells were combined with the fluorescent dye DiSC3 in buffer and incubated for about 5-60 min., usually less than about 30 min. The resulting fluorescence intensity (λexc=620 nm, λem=670 nm) corresponded to the basal ΔΨm. The mitochondria accumulate the fluorescent dye into the matrix in proportion to the ΔΨm, and at basal ΔΨm, the DiSC3 fluorescence is substantially quenched.
A Beckman Multimek™ 96 Automated 96-channel Pipettor was programmed to mix test compounds from master plates with the buffer containing freshly premixed permeabilized cells (0.1 OD) and DiSC3 (0.1 μM) and transfer this mixture to black 96-well plates. An LJL analyst was used in the fluorescence intensity mode to measure the DiSC3 fluorescence. […] A total of about 3,300 compounds were screened in this way to test the feasibility of this method.
Data are presented in FIG. 7B after transformation of the fluorescence data according to (Fcompd/Fcontrol−1), where Fcompd is the fluorescence intensity of a given well (as shown in FIG. 7A), and Fcontrol is the basal fluorescence obtained as an average intensity in column 1 where no compound was added (instead an equivalent volume of dimethyl sulfoxide (DMSO) was added).

## [Cl-].[K+] [KCl]
0 to 125 mM
  change in DiSC3 fluorescence intensity (plasma membrane potential control): no change in fluorescence intensity

## Nc1nc2c(ncn2[C@@H]2O[C@H](COP(=O)(O)OP(=O)(O)O)[C@@H](O)[C@H]2O)c(=O)[nH]1 [GDP]
100 μM added in the presence of BrPalm
  DiSC3 fluorescence level upon addition of compound: reverted back to the level close to basal intensity

## CCCCCCCCCCCCCCC(Br)C(=O)O (stereo not shown) [BrPalm, 2-bromo-palmitate]
5 to 10 μM
  DiSC3 fluorescence level upon addition of compound: higher fluorescence level

## N#CC(C#N)=NNc1ccc(Cl)cc1 [CCCP, carbonyl-cyanide p-chlorophenylhydrazone]
1 μM
  DiSC3 fluorescence level upon addition of compound: fluorescence reaches a maximum level
